Reference: PubChem BioAssay AID1919013 (Molecular Pharmacology Branch, DTP, NCI, 2023)
Blank lines part the entries; values can stand above or below the compound they belong to.

System: LG0703-F498-PDC complex spheroid growth
Test: Anticancer human tumor LG0703-F498-PDC patient-derived lung adenocarcinoma cell line growth inhibition [AhR]
Conditions: for IC50: curve of first compound; for viability, T/C: stronger effect = lower value
Method in brief: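 Spheroids combined tumor cells with HUVEC endothelial cells and human MSCs as stroma. AhR antagonists were paired with standard or investigational drugs, each dosed in half-log steps down from near clinical Cmax, or from 10 microM where Cmax was unknown.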

[1] = second compound 0.1 µM, first compound 0.0316 µM
[2] = second compound 0.1 µM, first compound 0.1 µM
[3] = second compound 0.316 µM, first compound 0.0316 µM
[4] = second compound 0.316 µM, first compound 0.1 µM
[5] = second compound 1 µM, first compound 0.0316 µM
[6] = second compound 1 µM, first compound 0.1 µM
[7] = second compound 3.16 µM, first compound 0.0316 µM
[8] = second compound 3.16 µM, first compound 0.1 µM
[9] = second compound 10 µM, first compound 0.0316 µM
[10] = second compound 10 µM, first compound 0.1 µM
[11] = second compound 0.1 µM, first compound 0.316 µM
[12] = second compound 0.1 µM, first compound 1 µM
[13] = second compound 0.1 µM, first compound 3.16 µM
[14] = second compound 0.1 µM, first compound 10 µM
[15] = second compound 0.316 µM, first compound 0.316 µM
[16] = second compound 0.316 µM, first compound 1 µM
[17] = second compound 0.316 µM, first compound 3.16 µM
[18] = second compound 0.316 µM, first compound 10 µM
[19] = second compound 1 µM, first compound 0.316 µM
[20] = second compound 1 µM, first compound 1 µM
[21] = second compound 1 µM, first compound 3.16 µM
[22] = second compound 1 µM, first compound 10 µM
[23] = second compound 3.16 µM, first compound 0.316 µM
[24] = second compound 3.16 µM, first compound 1 µM
[25] = second compound 3.16 µM, first compound 3.16 µM
[26] = second compound 3.16 µM, first compound 10 µM
[27] = second compound 10 µM, first compound 0.316 µM
[28] = second compound 10 µM, first compound 1 µM
[29] = second compound 10 µM, first compound 3.16 µM
[30] = second compound 10 µM, first compound 10 µM
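Further: luminescence taken as a proxy for viable cell amount.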
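Wherever viability, T/C is given: percent of DMSO vehicle control where 100% means growth equal to vehicle.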

IC50 (second compound 0.1 µM): > 100 nM
IC50 (second compound 0.316 µM): > 100 nM
IC50 (second compound 1 µM): > 100 nM
IC50 (second compound 3.16 µM): 29.8 nM
IC50 (second compound 10 µM): < 0.316 nM
SMILES: CC[C@@]1(O)C(=O)OCc2c1cc1n(c2=O)Cc2cc3c(CN(C)C)c(O)ccc3nc2-1 + Cc1cncc(-c2nc(NCCc3c[nH]c4ccccc34)c3ncn(C(C)C)c3n2)c1
viability, T/C (second compound 0.1 µM, first compound 0.000316 µM): 96.8%
viability, T/C (second compound 0.1 µM, first compound 0.001 µM): 99.7%
viability, T/C (second compound 0.1 µM, first compound 0.00316 µM): 100%
viability, T/C (second compound 0.1 µM, first compound 0.01 µM): 89.2%
viability, T/C [1]: 78.6%
viability, T/C [2]: 63.7%
viability, T/C (second compound 0.316 µM, first compound 0.000316 µM): 93%
viability, T/C (second compound 0.316 µM, first compound 0.001 µM): 105%
viability, T/C (second compound 0.316 µM, first compound 0.00316 µM): 102%
viability, T/C (second compound 0.316 µM, first compound 0.01 µM): 87.5%
viability, T/C [3]: 63.9%
viability, T/C [4]: 55.4%
viability, T/C (second compound 1 µM, first compound 0.000316 µM): 97.5%
viability, T/C (second compound 1 µM, first compound 0.001 µM): 101%
viability, T/C (second compound 1 µM, first compound 0.00316 µM): 101%
viability, T/C (second compound 1 µM, first compound 0.01 µM): 90.6%
viability, T/C [5]: 73%
viability, T/C [6]: 50.2%
viability, T/C (second compound 3.16 µM, first compound 0.000316 µM): 56.9%
viability, T/C (second compound 3.16 µM, first compound 0.001 µM): 67.9%
viability, T/C (second compound 3.16 µM, first compound 0.00316 µM): 56.6%
viability, T/C (second compound 3.16 µM, first compound 0.01 µM): 57.6%
viability, T/C [7]: 48%
viability, T/C [8]: 38.3%
viability, T/C (second compound 10 µM, first compound 0.000316 µM): 1.34%
viability, T/C (second compound 10 µM, first compound 0.001 µM): 2.04%
viability, T/C (second compound 10 µM, first compound 0.00316 µM): 1.13%
viability, T/C (second compound 10 µM, first compound 0.01 µM): 1.73%
viability, T/C [9]: 1.21%
viability, T/C [10]: 2.28%

IC50 (second compound 0.1 µM): 15.3 nM
IC50 (second compound 0.316 µM): 11.1 nM
IC50 (second compound 1 µM): 11.9 nM
IC50 (second compound 3.16 µM): < 0.949 nM
IC50 (second compound 10 µM): < 0.949 nM
SMILES: CCc1c2c(nc3ccc(O)cc13)-c1cc3c(c(=O)n1C2)COC(=O)[C@]3(O)CC + Cc1cncc(-c2nc(NCCc3c[nH]c4ccccc34)c3ncn(C(C)C)c3n2)c1
viability, T/C (second compound 0.1 µM, first compound 0.000949 µM): 102%
viability, T/C (second compound 0.1 µM, first compound 0.003 µM): 82.4%
viability, T/C (second compound 0.1 µM, first compound 0.00949 µM): 55.5%
viability, T/C (second compound 0.1 µM, first compound 0.03 µM): 39.3%
viability, T/C (second compound 0.1 µM, first compound 0.0949 µM): 29.1%
viability, T/C (second compound 0.1 µM, first compound 0.3 µM): 19.2%
viability, T/C (second compound 0.316 µM, first compound 0.000949 µM): 92.1%
viability, T/C (second compound 0.316 µM, first compound 0.003 µM): 72.4%
viability, T/C (second compound 0.316 µM, first compound 0.00949 µM): 51.2%
viability, T/C (second compound 0.316 µM, first compound 0.03 µM): 37.1%
viability, T/C (second compound 0.316 µM, first compound 0.0949 µM): 25.2%
viability, T/C (second compound 0.316 µM, first compound 0.3 µM): 18.3%
viability, T/C (second compound 1 µM, first compound 0.000949 µM): 80.5%
viability, T/C (second compound 1 µM, first compound 0.003 µM): 76.5%
viability, T/C (second compound 1 µM, first compound 0.00949 µM): 49.7%
viability, T/C (second compound 1 µM, first compound 0.03 µM): 35.7%
viability, T/C (second compound 1 µM, first compound 0.0949 µM): 22.1%
viability, T/C (second compound 1 µM, first compound 0.3 µM): 13.6%
viability, T/C (second compound 3.16 µM, first compound 0.000949 µM): 44.5%
viability, T/C (second compound 3.16 µM, first compound 0.003 µM): 37.7%
viability, T/C (second compound 3.16 µM, first compound 0.00949 µM): 33%
viability, T/C (second compound 3.16 µM, first compound 0.03 µM): 29.1%
viability, T/C (second compound 3.16 µM, first compound 0.0949 µM): 16.3%
viability, T/C (second compound 3.16 µM, first compound 0.3 µM): 11.9%
viability, T/C (second compound 10 µM, first compound 0.000949 µM): 1.16%
viability, T/C (second compound 10 µM, first compound 0.003 µM): 1.16%
viability, T/C (second compound 10 µM, first compound 0.00949 µM): 2.25%
viability, T/C (second compound 10 µM, first compound 0.03 µM): 1.82%
viability, T/C (second compound 10 µM, first compound 0.0949 µM): 1.25%
viability, T/C (second compound 10 µM, first compound 0.3 µM): 1.61%

IC50 (second compound 0.1 µM): > 10000 nM
IC50 (second compound 0.316 µM): > 10000 nM
IC50 (second compound 1 µM): > 10000 nM
IC50 (second compound 3.16 µM): < 31.6 nM
IC50 (second compound 10 µM): < 31.6 nM
SMILES: O=C(c1cc(Cc2n[nH]c(=O)c3ccccc23)ccc1F)N1CCN(C(=O)C2CC2)CC1 + Cc1cncc(-c2nc(NCCc3c[nH]c4ccccc34)c3ncn(C(C)C)c3n2)c1
viability, T/C [1]: 105%
viability, T/C [2]: 98.5%
viability, T/C [11]: 99.3%
viability, T/C [12]: 84.1%
viability, T/C [13]: 93.4%
viability, T/C [14]: 72.5%
viability, T/C [3]: 90.7%
viability, T/C [4]: 103%
viability, T/C [15]: 95%
viability, T/C [16]: 95.5%
viability, T/C [17]: 89.4%
viability, T/C [18]: 80.8%
viability, T/C [5]: 108%
viability, T/C [6]: 95.9%
viability, T/C [19]: 99.8%
viability, T/C [20]: 99.4%
viability, T/C [21]: 98.3%
viability, T/C [22]: 78.1%
viability, T/C [7]: 40.2%
viability, T/C [8]: 43.1%
viability, T/C [23]: 51.7%
viability, T/C [24]: 46.2%
viability, T/C [25]: 40%
viability, T/C [26]: 43%
viability, T/C [9]: 0.8%
viability, T/C [10]: 0.83%
viability, T/C [27]: 0.8%
viability, T/C [28]: 0.79%
viability, T/C [29]: 0.66%
viability, T/C [30]: 1.47%

More lines, now with the values behind:

SMILES: Nc1ccccc1NC(=O)c1ccc(CNC(=O)OCc2cccnc2)cc1 + Cc1cncc(-c2nc(NCCc3c[nH]c4ccccc34)c3ncn(C(C)C)c3n2)c1
IC50 (second compound 0.1 µM): 849 nM
IC50 (second compound 0.316 µM): 563 nM
IC50 (second compound 1 µM): 571 nM
IC50 (second compound 3.16 µM): < 31.6 nM
IC50 (second compound 10 µM): < 31.6 nM
viability, T/C [1]: 93%
viability, T/C [2]: 89.2%
viability, T/C [11]: 68.7%
viability, T/C [12]: 53.4%
viability, T/C [13]: 4.49%
viability, T/C [14]: 0.69%
viability, T/C [3]: 100%
viability, T/C [4]: 90.4%
viability, T/C [15]: 67.2%
viability, T/C [16]: 34.5%
viability, T/C [17]: 3.29%
viability, T/C [18]: 0.43%
viability, T/C [5]: 78.4%
viability, T/C [6]: 87.5%
viability, T/C [19]: 62.8%
viability, T/C [20]: 36.5%
viability, T/C [21]: 2.86%
viability, T/C [22]: 0.16%
viability, T/C [7]: 34%
viability, T/C [8]: 23.7%
viability, T/C [23]: 21%
viability, T/C [24]: 10.6%
viability, T/C [25]: 3.34%
viability, T/C [26]: 0.15%
viability, T/C [9]: 0.75%
viability, T/C [10]: 0.81%
viability, T/C [27]: 0.77%
viability, T/C [28]: 0.69%
viability, T/C [29]: 0.77%
viability, T/C [30]: 0.17%

SMILES: Nc1ccn(C2OC(CO)C(O)C2(F)F)c(=O)n1 (stereo not given) + Cc1cncc(-c2nc(NCCc3c[nH]c4ccccc34)c3ncn(C(C)C)c3n2)c1
IC50 (second compound 0.1 µM): < 31.6 nM
IC50 (second compound 0.316 µM): < 31.6 nM
IC50 (second compound 1 µM): < 31.6 nM
IC50 (second compound 3.16 µM): < 31.6 nM
IC50 (second compound 10 µM): < 31.6 nM
viability, T/C [1]: 40.6%
viability, T/C [2]: 36.2%
viability, T/C [11]: 31.3%
viability, T/C [12]: 28.9%
viability, T/C [13]: 28.2%
viability, T/C [14]: 18.8%
viability, T/C [3]: 39.7%
viability, T/C [4]: 37.6%
viability, T/C [15]: 35%
viability, T/C [16]: 28.1%
viability, T/C [17]: 26.4%
viability, T/C [18]: 17.9%
viability, T/C [5]: 33.5%
viability, T/C [6]: 40%
viability, T/C [19]: 32.2%
viability, T/C [20]: 28.8%
viability, T/C [21]: 24.1%
viability, T/C [22]: 19.9%
viability, T/C [7]: 24.4%
viability, T/C [8]: 26.7%
viability, T/C [23]: 29.4%
viability, T/C [24]: 19.5%
viability, T/C [25]: 18.1%
viability, T/C [26]: 17.9%
viability, T/C [9]: 0.88%
viability, T/C [10]: 1.65%
viability, T/C [27]: 1.55%
viability, T/C [28]: 1.08%
viability, T/C [29]: 1.14%
viability, T/C [30]: 1.93%
